# Reference: patent US20240174695A1, “Spirocycle Containing Bicyclic Heteroaryl Compounds” (Protego Biopharma, Inc., priority 2022, published 2024)
# Tested on: Recombinant amyloidogenic full length light chain protein WIL-FL T46L
# Test: Differential Scanning Fluorimetry Assay (thermal shift assay); further: test concentration or dose not given here
# Assay type: binding
# Settings: Thermal Shift Protein Stability Kit (Biotium), 96-well plates; protein and compounds incubated at RT for 30 min before adding the dye
# Experimental: Differential Scanning Fluorimetry Assay
# The stabilization effects the compounds have on the immunoglobulin light chain protein were quantitively measured using a thermal shift assay. Recombinant amyloidogenic full length light chain protein WIL-FL T46L was produced in E. coli, purified, and used in the assay. The Thermal Shift Protein Stability Kit from Biotium was used and the assay was done in 96-well plates following the manufacturer's instructions. The protein and compounds were incubated at RT for 30 min before adding the dye and subjected to the thermal shift assay. The thermal stability (Tm) of each sample was then determined using standard curve fitting methods and compared to vehicle. Data are expressed as temperature shift: [Tm]compound−[Tm]vehicle.
# Results • 0-0.5° C.=* • >0.5-1° C.=** • >1-1.5° C.=*** • >1.5-2.5° C.=**** • >2.5° C.=*****
row,Structure (SMILES),DSF temperature shift: [Tm]compound−[Tm]vehicle
1,Cc1cc(OC[C@H](C)c2ccccc2)cn2nc(C(O)CN3CC4(CN(c5ccnc(O)c5)C4)NC3=O)nc12 (stereo partly shown) [Compound 84],***** (>2.5° C.=*****)
2,Cc1cc(OC[C@H](C)c2ccccc2)cn2nc(CCN3CC4(CCN(C(=O)c5ncccn5)CC4)NC3=O)nc12 [Compound 91],**** (>1.5-2.5° C.=****)
3,Cc1cc(OCC2(c3ccccc3)CC2)cn2nc(C(O)CN3CC4(CCN(c5cnccn5)CC4)NC3=O)nc12 (stereo not shown) [Compound 58],***** (>2.5° C.=*****)
4,Cc1cc(OC[C@H](C)c2ccccc2)cn2nc(CCN3CC4(CCN(c5ccc(C#N)cn5)CC4)NC3=O)nc12 [Compound 100],**** (>1.5-2.5° C.=****)
5,CC(=O)N1CCC(N2CCC3(CC2)CN(CC(O)c2nc4c(C)cc(OCC5(c6ccccc6)CC5)cn4n2)C(=O)N3)CC1 (stereo not shown) [Compound 15],*** (>1-1.5° C.=***)
6,C[C@@H](COc1cc(CO)c2nc(C(O)CN3CC4(CN(c5ccnc(O)c5)C4)NC3=O)nn2c1)c1ccccc1 (stereo partly shown) [Compound 144],***** (>2.5° C.=*****)
7,Cc1cc(N2CC[C@](C)(c3ccccc3)C2)cn2nc(CCN3CC4(CCN(c5nccn6ccnc56)CC4)NC3=O)nc12 [Compound 2],***** (>2.5° C.=*****)
8,Cc1cc(OCC2(c3ccccc3)CC2)cn2nc(C(O)CN3CC4(CCN(c5ccc(C(=O)O)nc5)CC4)NC3=O)nc12 (stereo not shown) [Compound 48],**** (>1.5-2.5° C.=****)
9,Cc1cc(OC[C@H](C)c2ccccc2)cn2nc(C(O)CN3CC4(CN(c5cccc(C(=O)O)n5)C4)NC3=O)nc12 (stereo partly shown) [Compound 86],**** (>1.5-2.5° C.=****)
10,"Cc1cc(N2CCC(C)(c3ccccc3)C2)cn2nc(CCN3CCCC4(CCN(c5nccn6cnnc56)CC4)C3=O)nc12 (stereo in doubt) [Compound 28, (R)-9-([1,2,4]triazolo[4,3-a]pyrazin-8-yl)-2-(2-(8-methyl-6-(3-methyl-3-phenylpyrrolidin-1-yl)-[1,2,4]triazolo[1,5-a]pyridin-2-yl)ethyl)-2,9-diazaspiro[5.5]undecan-1-one]",***** (>2.5° C.=*****)
11,"Cc1c(CCN2C(=O)NC3(CCN(c4nccn5ccnc45)CC3)C2=O)nc2cc(O[C@H](C)c3ccccc3)ccn12 [Compound 14, 8-(Imidazo[1,2-a]pyrazin-8-yl)-3-(2-(3-methyl-7-(1-phenylethoxy)imidazo[1,2-a]pyridin-2-yl)ethyl)-1,3,8-triazaspiro[4.5]decane-2,4-dione]",** (>0.5-1° C.=**)
12,Cc1cc(OC[C@H](C)c2ccccc2)cn2nc(CCN3CC4(CCN(C(=O)C5(c6ccccn6)CC5)CC4)NC3=O)nc12 [Compound 90],*** (>1-1.5° C.=***)
13,Cc1cc(OC[C@@H](C)c2ccccc2)cn2nc(CCN3CC4(CCN(c5nccn6cncc56)CC4)NC3=O)nc12 [Compound 12],***** (>2.5° C.=*****)
14,Cc1cc(F)ncc1N1CCC2(CC1)CN(CC(O)c1nc3c(C)cc(OCC4(c5ccccc5)CC4)cn3n1)C(=O)N2 (stereo not shown) [Compound 36],**** (>1.5-2.5° C.=****)
15,Cc1cc(OC[C@H](C)c2ccccc2)cn2nc(C(O)CN3CC4(CN(c5nccn6cnnc56)C4)NC3=O)nc12 (stereo partly shown) [Compound 88],***** (>2.5° C.=*****)
16,COc1cc(N2CCC3(CC2)CN(CC(O)c2nc4c(C)cc(OCC5(c6ccccc6)CC5)cn4n2)C(=O)N3)ccn1 (stereo not shown) [Compound 142],***** (>2.5° C.=*****)
17,Cc1cc(OC[C@H](C)c2ccccc2)cn2nc(C(O)CN3CC4(CN(c5ccnc(O)c5)C4)OC3=O)nc12 (stereo partly shown) [Compound 81],***** (>2.5° C.=*****)
18,Cc1ncnc(N2CCC3(CC2)CN(CCc2nc4c(C)cc(OC[C@H](C)c5ccccc5)cn4n2)C(=O)N3)c1C [Compound 118],**** (>1.5-2.5° C.=****)
19,Cc1cc(OC[C@H](C)c2ccccc2)cn2nc(CCN3CC4(CCN(c5ncns5)CC4)NC3=O)nc12 [Compound 119],**** (>1.5-2.5° C.=****)
20,Cc1cc(OCC(C)c2ccccc2)cn2nc(CCN3CC4(CCN(c5nccn6cnnc56)CC4)NC3=O)nc12 (stereo not shown) [Compound 13],***** (>2.5° C.=*****)
21,Cc1cc(OCC2(c3ccccc3)CC2)cn2nc(C(O)CN3CC4(CCN(c5cc(F)nc(F)c5)CC4)NC3=O)nc12 (stereo not shown) [Compound 39],** (>0.5-1° C.=**)
22,Cc1cc(OCC2(c3ccccc3)CC2)cn2nc(C(O)CN3CC4(CCN(c5ccnc(F)n5)CC4)NC3=O)nc12 (stereo not shown) [Compound 44],***** (>2.5° C.=*****)
23,Cc1cc(OC[C@H](C)c2ccccc2)cn2nc(CCN3CC4(CCN(c5ncc(F)cn5)CC4)OC3=O)nc12 [Compound 114],*** (>1-1.5° C.=***)

row,Structure (SMILES),DSF temperature shift: [Tm]compound−[Tm]vehicle
1,Cc1cc(OCC2(c3ccccc3)CC2)cn2nc(C(O)CN3CC4(CCN(c5nccn6cncc56)CC4)NC3=O)nc12 (stereo not shown) [Compound 57],***** (>2.5° C.=*****)
2,Cc1cc(N2CC[C@@](C)(c3ccccc3)C2)cn2nc(C(O)CN3CC4(CN(c5cccc(O)n5)C4)NC3=O)nc12 (stereo partly shown) [Compound 26],***** (>2.5° C.=*****)
3,Cc1nc(F)ccc1N1CCC2(CC1)CN(CCc1nc3c(C)cc(OC[C@H](C)c4ccccc4)cn3n1)C(=O)N2 [Compound 101],** (>0.5-1° C.=**)
4,"Cc1cc(OC[C@H](C)c2ccccc2)cn2nc(C(C)CN3CC4(CN(c5ccnc(O)c5)C4)NC3=O)nc12 (stereo partly drawn) [Compound 68, 2-(2-hydroxy-4-pyridyl)-7-[2-[8-methyl-6-[(2R)-2-phenylpropoxy]-[1,2,4]triazolo[1,5-a]pyridin-2-yl]propyl]-2,5,7-triazaspiro[3.4]octan-6-one]",**** (>1.5-2.5° C.=****)
5,Cc1c(O)ncnc1N1CC2(CN(CC(O)c3nc4c(C)cc(OC[C@H](C)c5ccccc5)cn4n3)C(=O)N2)C1 (stereo partly shown) [Compound 89],***** (>2.5° C.=*****)
6,Cc1nccc(N2CCC3(CC2)CN(CC(O)c2nc4c(C)cc(OCC5(c6ccccc6)CC5)cn4n2)C(=O)N3)n1 (stereo not shown) [Compound 50],**** (>1.5-2.5° C.=****)
7,CC[C@@]1(c2ccccc2)CCN(c2cc(C)c3nc(CCN4CC5(CCN(c6nccn7cncc67)CC5)NC4=O)nn3c2)C1 [Compound 7],***** (>2.5° C.=*****)
8,Cc1cc(OC[C@H](C)c2ccccc2)cn2nc(C(C)(O)CN3CC4(CCN(c5ccnc(O)c5)CC4)NC3=O)nc12 (stereo partly shown) [Compound 67],**** (>1.5-2.5° C.=****)
9,CCOC(=O)c1ccc(N2CCC3(CC2)CN(CC(O)c2nc4c(C)cc(OCC5(c6ccccc6)CC5)cn4n2)C(=O)N3)cn1 (stereo not shown) [Compound 130],*** (>1-1.5° C.=***)
10,Cc1cc(OCC2(c3ccccc3)CC2)cn2nc(C(O)CN3CC4(CCN(c5ccnnc5)CC4)NC3=O)nc12 (stereo not shown) [Compound 47],**** (>1.5-2.5° C.=****)
11,COc1ccc(N2CCC3(CC2)CN(CCc2nc4c(C)cc(OC[C@H](C)c5ccccc5)cn4n2)C(=O)N3)c(C)n1 [Compound 141],** (>0.5-1° C.=**)
12,Cc1cc(OCC2(c3ccccc3)CC2)cn2nc(C(O)CN3CC4(CCN(c5cnc(Cl)cn5)CC4)NC3=O)nc12 (stereo not shown) [Compound 55],**** (>1.5-2.5° C.=****)
13,Cc1cc(OC[C@H](C)c2ccccc2)cn2nc(CCN3CC4(CCN(c5cccnc5C(F)(F)F)CC4)NC3=O)nc12 [Compound 104],** (>0.5-1° C.=**)
14,Cc1cc(OCC2(c3ccccc3)CC2)cn2nc(C(O)CN3CC4(CCN(C(=O)C5(c6ccccn6)CC5)CC4)NC3=O)nc12 (stereo not shown) [Compound 29],***** (>2.5° C.=*****)
15,Cc1cc(OC[C@H](C)c2ccccc2)cn2nc(C(C)(O)CN3CC4(CCN(C(=O)c5nncn5C)CC4)NC3=O)nc12 (stereo partly shown) [Compound 65],**** (>1.5-2.5° C.=****)
16,CCC1(c2ccccc2)CCN(c2cc(C)c3nc(CCN4CC5(CCN(c6nccn7ccnc67)CC5)NC4=O)nn3c2)C1 (stereo not shown) [Compound 5],***** (>2.5° C.=*****)
17,Cc1cc(OC[C@H](C)c2ccccc2)cn2nc(CCN3CC4(CCN(c5cccc(Cl)n5)CC4)NC3=O)nc12 [Compound 102],*** (>1-1.5° C.=***)
18,Cc1cc(OC[C@H](C)c2ccccc2)cn2nc(C(O)CN3CC4(CN(c5ccnc(O)n5)C4)NC3=O)nc12 (stereo partly shown) [Compound 85],***** (>2.5° C.=*****)
19,Cc1cc(OC[C@H](C)c2ccccc2)cn2nc(CCN3CC4(CCN(C(=O)c5ncnn5C)CC4)NC3=O)nc12 [Compound 92],**** (>1.5-2.5° C.=****)
20,Cc1cc(OC[C@H](C)c2ccccc2)cn2nc(CCN3CC4(CCN(c5cc(Cl)nc(S(C)(=O)=O)n5)CC4)NC3=O)nc12 [Compound 99],**** (>1.5-2.5° C.=****)
21,Cc1cc(OCC2(c3ccccc3)CC2)cn2nc(C(O)CN3CC4(CCN(c5ccncc5)CC4)NC3=O)nc12 (stereo not shown) [Compound 46],**** (>1.5-2.5° C.=****)
22,Cc1nsc(N2CCC3(CC2)CN(CC(O)c2nc4c(C)cc(OCC5(c6ccccc6)CC5)cn4n2)C(=O)N3)n1 (stereo not shown) [Compound 51],***** (>2.5° C.=*****)
23,COC(=O)c1cc(N2CC3(CN(CC(O)c4nc5c(C)cc(OC[C@H](C)c6ccccc6)cn5n4)C(=O)N3)C2)ccn1 (stereo partly shown) [Compound 137],***** (>2.5° C.=*****)
